Consider two compounds from US10010560B2, “Small molecule HSP70 inhibitors” (THE TRUSTEES OF THE UNIVERSITY OF PENNSYLVANIA, priority 2014, dated 2018).

As usually defined, the Kd is the equilibrium constant for the complex coming apart. A high value points to lower affinity.

One series addresses T1, ATP-HSP70 (WT) (Homo sapiens, UniProt P0DMV8, E110D).
T1 construct: Full-length recombinant proteins of HSP70 (aa 1-641) as well as DnaK (aa 1-638); His6 (N); made in house; host or cells: E. coli BL21 Star (DE3)
In words: ITC binding to ATP-bound full-length HSP70. The source says: The human stress-inducible HSP70 (residues 1-641 or 386-616 of SEQ ID NO: 2) and E. coli DnaK (residues 1-638, 389-607, or 393-507 of SEQ ID NO: 4) were cloned into the pET25 vector (EMD Millipore Chemicals, Inc., Billerica, Mass., USA) between the NdeI and XhoI restriction sites. The full-length HSP70 and DnaK mutants were constructed by PCR-based site-directed mutagenesis using the QuikChange™ Site-Directed Mutagenesis Kit (Agilent Technologies, Inc., Santa Clara, Calif., USA). All plasmid inserts were verified by DNA sequencing. All HSP70 and DnaK variants were produced with a N-terminal His6-tag in the E. coli BL21 Star (DE3) strain (Invitrogen catalog number C6010-03). The resulting strains were grown at 37° C. in LB medium containing 50 μg/mL of carbenicillin (Sigma-Aldrich Co., St. Louis, Mo., USA). At an OD600 about 0.3 to about 0.5, protein expression was induced with 0.5 mM isopropyl-β-D-thiogalactopyranoside (IPTG), and cells were subsequently grown at 25° C. for about 16 h. Cells were collected by centrifugation and resuspended in the Bugbuster® Master Mix (EMD Millipore Chemicals catalog number 71456-4), supplemented with protease inhibitors, 1 mM diethiothreitol (DTT) and 20 mM imidazole. The His6-tagged fusion proteins were isolated on Ni^2+-chelating resins (Ni-NTA Superflow, Qiagen catalog number 30410) by standard procedures. When necessary, size-exclusion chromatography on a Superdex® 200 or a Superose® 6 10/300 GL columns (GE Healthcare) analytical column pre-equilibrated with 1× Dulbecco's Phosphate Buffered Saline (DPBS—Invitrogen 14190-136), 1 mM Tris-HCl (pH 7.4) or 10 mM Tris-HCl (pH 7) was used as the final purification step. The purified DnaK proteins were dialyzed thoroughly against 1× DPBS with 5 mM DTT at 4° C., for crystallization trials involving the small molecule inhibitor PET-16. For isothermal titration calorimetry studies, all HSP70 and DnaK variants were dialyzed extensively against the buffers as noted below under the section entitled “Isothermal Titration calorimetry Studies”. […]

In the next series the target is T2, ATP-bound DnaK (Escherichia coli, UniProt P0A6Y8).
T2 construct: Full-length recombinant proteins of HSP70 (aa 1-641) as well as DnaK (aa 1-638); His6 (N); made in house; host or cells: E. coli BL21 Star (DE3)
T2 sequence (P0A6Y8 whole entry, the tested form may be a part): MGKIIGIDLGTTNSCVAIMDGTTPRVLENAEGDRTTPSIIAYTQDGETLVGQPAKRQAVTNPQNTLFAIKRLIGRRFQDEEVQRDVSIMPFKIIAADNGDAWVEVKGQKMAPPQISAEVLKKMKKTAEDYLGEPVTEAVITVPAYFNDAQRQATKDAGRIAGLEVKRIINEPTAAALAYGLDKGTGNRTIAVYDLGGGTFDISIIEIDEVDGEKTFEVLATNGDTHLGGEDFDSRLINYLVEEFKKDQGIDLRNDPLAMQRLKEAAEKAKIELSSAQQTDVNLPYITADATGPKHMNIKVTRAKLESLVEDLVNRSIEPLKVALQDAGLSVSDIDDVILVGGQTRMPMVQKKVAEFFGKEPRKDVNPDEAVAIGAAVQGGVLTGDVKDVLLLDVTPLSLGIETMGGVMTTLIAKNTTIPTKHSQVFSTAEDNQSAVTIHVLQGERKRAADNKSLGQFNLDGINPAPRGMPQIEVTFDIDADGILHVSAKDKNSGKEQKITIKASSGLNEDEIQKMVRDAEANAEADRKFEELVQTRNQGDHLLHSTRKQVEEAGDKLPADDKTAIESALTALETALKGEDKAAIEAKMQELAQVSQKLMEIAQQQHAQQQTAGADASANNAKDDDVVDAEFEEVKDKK
Nature of the series: ITC binding to ATP-bound DnaK. Set-up: species or system E. coli. The conditions noted are these: in words. The source says:
The human stress-inducible HSP70 (residues 1-641 or 386-616 of SEQ ID NO: 2) and E. coli DnaK (residues 1-638, 389-607, or 393-507 of SEQ ID NO: 4) were cloned into the pET25 vector (EMD Millipore Chemicals, Inc., Billerica, Mass., USA) between the NdeI and XhoI restriction sites. The full-length HSP70 and DnaK mutants were constructed by PCR-based site-directed mutagenesis using the QuikChange™ Site-Directed Mutagenesis Kit (Agilent Technologies, Inc., Santa Clara, Calif., USA). All plasmid inserts were verified by DNA sequencing. All HSP70 and DnaK variants were produced with a N-terminal His6-tag in the E. coli BL21 Star (DE3) strain (Invitrogen catalog number C6010-03). The resulting strains were grown at 37° C. in LB medium containing 50 μg/mL of carbenicillin (Sigma-Aldrich Co., St. Louis, Mo., USA). At an OD600 about 0.3 to about 0.5, protein expression was induced with 0.5 mM isopropyl-β-D-thiogalactopyranoside (IPTG), and cells were subsequently grown at 25° C. for about 16 h. Cells were collected by centrifugation and resuspended in the Bugbuster® Master Mix (EMD Millipore Chemicals catalog number 71456-4), supplemented with protease inhibitors, 1 mM diethiothreitol (DTT) and 20 mM imidazole. The His6-tagged fusion proteins were isolated on Ni^2+-chelating resins (Ni-NTA Superflow, Qiagen catalog number 30410) by standard procedures. […]

A further series deals with T3, ADP-HSP70 (WT, aa 1-641) (Homo sapiens, UniProt P0DMV8, E110D).
T3 construct: Full-length recombinant proteins of HSP70 (aa 1-641) as well as DnaK (aa 1-638); His6 (N); made in house; host or cells: E. coli BL21 Star (DE3)
T3 sequence (P0DMV8 whole entry E110D, the tested form may be a part): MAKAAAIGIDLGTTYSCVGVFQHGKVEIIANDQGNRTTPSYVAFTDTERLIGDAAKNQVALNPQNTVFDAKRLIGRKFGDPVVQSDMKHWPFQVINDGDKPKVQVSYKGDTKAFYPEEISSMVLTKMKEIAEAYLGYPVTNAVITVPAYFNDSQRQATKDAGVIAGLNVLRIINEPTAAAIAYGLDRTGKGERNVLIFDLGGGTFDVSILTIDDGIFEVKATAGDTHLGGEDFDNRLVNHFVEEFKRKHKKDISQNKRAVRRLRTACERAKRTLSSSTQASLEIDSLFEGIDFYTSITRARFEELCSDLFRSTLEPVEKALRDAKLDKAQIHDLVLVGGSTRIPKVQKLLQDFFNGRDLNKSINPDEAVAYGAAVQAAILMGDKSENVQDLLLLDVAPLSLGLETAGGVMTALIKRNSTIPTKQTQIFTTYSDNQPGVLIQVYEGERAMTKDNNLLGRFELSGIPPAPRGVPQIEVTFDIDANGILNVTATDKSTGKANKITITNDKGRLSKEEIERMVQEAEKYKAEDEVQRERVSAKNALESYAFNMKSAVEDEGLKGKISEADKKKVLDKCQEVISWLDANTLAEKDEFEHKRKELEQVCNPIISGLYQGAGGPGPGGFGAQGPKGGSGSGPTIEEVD
In words: ITC binding to ADP-bound full-length HSP70. An excerpt:
The human stress-inducible HSP70 (residues 1-641 or 386-616 of SEQ ID NO: 2) and E. coli DnaK (residues 1-638, 389-607, or 393-507 of SEQ ID NO: 4) were cloned into the pET25 vector (EMD Millipore Chemicals, Inc., Billerica, Mass., USA) between the NdeI and XhoI restriction sites. The full-length HSP70 and DnaK mutants were constructed by PCR-based site-directed mutagenesis using the QuikChange™ Site-Directed Mutagenesis Kit (Agilent Technologies, Inc., Santa Clara, Calif., USA). All plasmid inserts were verified by DNA sequencing. All HSP70 and DnaK variants were produced with a N-terminal His6-tag in the E. coli BL21 Star (DE3) strain (Invitrogen catalog number C6010-03). The resulting strains were grown at 37° C. in LB medium containing 50 μg/mL of carbenicillin (Sigma-Aldrich Co., St. Louis, Mo., USA). At an OD600 about 0.3 to about 0.5, protein expression was induced with 0.5 mM isopropyl-β-D-thiogalactopyranoside (IPTG), and cells were subsequently grown at 25° C. for about 16 h. Cells were collected by centrifugation and resuspended in the Bugbuster® Master Mix (EMD Millipore Chemicals catalog number 71456-4), supplemented with protease inhibitors, 1 mM diethiothreitol (DTT) and 20 mM imidazole. The His6-tagged fusion proteins were isolated on Ni^2+-chelating resins (Ni-NTA Superflow, Qiagen catalog number 30410) by standard procedures. When necessary, size-exclusion chromatography on a Superdex® 200 or a Superose® 6 10/300 GL columns (GE Healthcare) analytical column pre-equilibrated with 1× Dulbecco's Phosphate Buffered Saline (DPBS—Invitrogen 14190-136), 1 mM Tris-HCl (pH 7.4) or 10 mM Tris-HCl (pH 7) was used as the final purification step. The purified DnaK proteins were dialyzed thoroughly against 1× DPBS with 5 mM DTT at 4° C., for crystallization trials involving the small molecule inhibitor PET-16. For isothermal titration calorimetry studies, all HSP70 and DnaK variants were dialyzed extensively against the buffers as noted below under the section entitled “Isothermal Titration calorimetry Studies”. The dialyzed proteins were subsequently microcentrifugated at 15,000×g for 5 min at 4° C. and aliquots of the soluble proteins were stored at −80° C.
All ITC experiments were performed using a MicroCal VP-ITC isothermal titration calorimeter (MicroCal). Both full-length HSP70 and DnaK proteins and DnaK (aa 393-507) proteins were prepared in 1 mM Tris-HCl (pH 7.4) buffer containing 3% dimethylsulfoxide (DMSO). The HSP70 (aa 386-616) protein was prepared in buffer containing 3% DMSO and 10 mM Tris-HCl, pH 7. The syringe was loaded with purified protein in either 1 mM Tris-HCl (pH 7.4) buffer containing 3% DMSO or 10 mM Tris-HCl (pH 7) buffer containing 3% DMSO. The sample cell of the calorimeter was loaded with PES, PET-16 or NRLLLTG (SEQ ID NO: 7) prepared in the same buffer. All solutions were degassed for 5 min.
The titrations involving the full-length purified proteins were performed at 25° C. with injection volumes of 12 μL and a spacing of 300 s. The titrations involving the purified HSP70 (aa 386-616) and DnaK (aa 393-507) were performed at 42° C. with injection volumes of 12 μL and a spacing of 300 s. Heat from the pre-injection was not used during fitting. The data were fit using a one-site binding model available in the Origin® ITC data analysis software (MicroCal Origin® V5.0, MicroCal Software, Northampton, Mass.). Error values obtained from the MicroCal Origin® V5.0 software were averaged and reported. […]

Another series deals with Cyclophilin D (Cyp-D). In words: Purified mitochondria from H1299 cells, western blot for Cyp-D. The format is cell-based. The source says: FIGS. 5A-5F illustrates that PET-16 leads to loss of mitochondrial protein Cyclophilin D and impairs bioenergetics in tumor cells. FIGS. 5A-5D are western blots of HSP70, which is present at mitochondria of tumor H1299 cells but not in normal tissue, such as liver. The constitutively expressed 70 kDa family members, HSC70 and GRP75, are present in mitochondria of normal cells. Equal amounts of whole cell (WC)-, cytosolic (cyto)-, and mitochondrial (mito)-extracts prepared from cell lines H1299 (A, C) and MIA PaCa-2 (B) or normal (liver) cells (C, D) were examined by western blot analysis for the presence of the proteins indicated. […] Decreases of AlamarBlue® fluorescence, indicative of mitochondrial damage, are noted in PET-16-treated tumor cells (melanoma tumor cell line WM88 (-), melanoma tumor cell line WM3000 (×), melanoma tumor cell line WM852 (*), human melanoma 451 Lu cells (●), and melanoma tumor cell line WM989 (|), but not normal cells (nontransformed human fibroblasts (IMR90-♦) and primary melanocytes (▪)). Values are normalized to the vehicle-treated cells. Error bars represent standard deviation (s.d.) of four independent experiments. […]
For orientation: A western blot detects proteins with antibodies after separation by electrophoresis.

[1] abbreviates: ITC, wild-type full-length ADP-bound HSP70.

T1 sequence (P0DMV8 whole entry E110D, the tested form may be a part): as above

For the compound `NS(=O)(=O)C#Cc1ccccc1` [PES, 2-Phenylethynesulfonamide, reference compound], the “interaction with ATP-bound HSP70” value at ATP-HSP70 (WT) (in words) is “notably reduced”. Moreover, the “interaction with ATP-bound DnaK” value at ATP-bound DnaK was “notably reduced”. On ADP-HSP70 (WT, aa 1-641) (setting [1]), the Kd is approximately 5.7 µM. Besides, the “abundance of Cyp-D in the soluble-protein fraction” value in the series with Cyclophilin D (Cyp-D) was “not”.

Take `C(#C[P+](c1ccccc1)(c1ccccc1)c1ccccc1)c1ccccc1.[Br-]` [PET-16, triphenyl(phenylethynyl)phosphonium bromide]: the dissociation constant (Kd) was 130 ± 8.3 µM at ATP-HSP70 (WT) (wild-type full-length ATP-bound HSP70); approximately 3.8 µM at ADP-HSP70 (WT, aa 1-641) (setting [1]); 3.8 µM at ADP-HSP70 (WT, aa 1-641) (dimeric ADP-bound HSP70 (N=0.5)); 1.3 µM at ADP-HSP70 (WT, aa 1-641) (tetrameric ADP-bound HSP70 (N=0.25)). In addition, the “interaction with ATP-bound DnaK” value on ATP-bound DnaK is given as “notably reduced”. Moreover, the “abundance of Cyp-D in the soluble-protein fraction” value in the series with Cyclophilin D (Cyp-D) is “significantly reduced”.
